Measured values: ChEMBL document CHEMBL3727356, “Therapeutic compounds and compositions” (2014)

Assays:
Pyruvate kinase PKLR [1] = target: Pyruvate kinase PKLR (Homo sapiens, UniProt P30613, R510Q); assay: Activation of PKR R510Q mutant (unknown origin) incubated for 60 mins in presence of ADP, PEP and NADH by Spectraax microplate reader based assay
Pyruvate kinase PKLR [2] = target: Pyruvate kinase PKLR (Homo sapiens, UniProt P30613, R532W); assay: Activation of PKR R532W mutant (unknown origin) incubated for 60 mins in presence of ADP, PEP and NADH by Spectraax microplate reader based assay
Pyruvate kinase PKLR [3] = target: T1, Pyruvate kinase PKLR (Homo sapiens, UniProt P30613); assay: Activation of wild type PKR (unknown origin) incubated for 60 mins in presence of ADP, PEP and NADH by Spectraax microplate reader based assay
Pyruvate kinase PKLR [4] = target: T1, Pyruvate kinase PKLR; assay: Activation of wild type PKR (unknown origin) by cell based assay

Chain of Pyruvate kinase PKLR (Homo sapiens, UniProt P30613, R510Q) (P30613 whole entry R510Q): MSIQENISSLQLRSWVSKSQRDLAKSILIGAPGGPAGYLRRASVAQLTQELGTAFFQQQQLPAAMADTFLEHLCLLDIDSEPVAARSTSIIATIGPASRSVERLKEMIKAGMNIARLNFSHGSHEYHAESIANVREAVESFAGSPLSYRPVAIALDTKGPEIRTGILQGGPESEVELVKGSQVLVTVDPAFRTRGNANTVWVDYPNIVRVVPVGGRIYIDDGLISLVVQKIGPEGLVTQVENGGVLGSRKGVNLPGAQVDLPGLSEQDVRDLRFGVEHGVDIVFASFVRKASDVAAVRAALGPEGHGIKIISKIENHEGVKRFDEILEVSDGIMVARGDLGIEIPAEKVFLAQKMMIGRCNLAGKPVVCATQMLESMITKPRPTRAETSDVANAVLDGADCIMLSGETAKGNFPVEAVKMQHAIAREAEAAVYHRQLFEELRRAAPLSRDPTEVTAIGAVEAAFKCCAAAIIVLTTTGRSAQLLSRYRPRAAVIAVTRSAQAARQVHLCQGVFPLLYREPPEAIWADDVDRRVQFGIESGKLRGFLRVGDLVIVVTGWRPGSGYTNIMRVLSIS
Chain of Pyruvate kinase PKLR (Homo sapiens, UniProt P30613, R532W) (P30613 whole entry R532W): as the sequence (P30613 whole entry R510Q) above, with Q510R, R532W counted along it
T1 sequence (P30613 whole entry): as the sequence (P30613 whole entry R510Q) above, with Q510R counted along it

AC50 (Pyruvate kinase PKLR [1]) | AC50 (Pyruvate kinase PKLR [2]) | AC50 (Pyruvate kinase PKLR [3]) | AC50 (Pyruvate kinase PKLR [4]) | Structure (SMILES)
> 10 µM | > 10000 nM | – | – | Nc1nc2cc(S(=O)(=O)Nc3ccc(C(=O)N4CCC(O)(c5ccccc5Cl)CC4)cc3)c(F)cc2s1
> 10 µM | > 10000 nM | – | – | CC(C)CC1(O)CCN(C(=O)c2ccc(NS(=O)(=O)c3cnc(O)c4cccnc34)cc2)CC1
> 10 µM | – | – | – | O=C1NCCC1CC1(O)CCN(C(=O)c2ccc(NS(=O)(=O)c3cccc4scnc34)cc2)CC1 (stereo unspecified)
< 0.1 µM | < 100 nM | < 100 nM | – | O=C(c1ccc(NS(=O)(=O)c2cccc3scnc23)cc1)N1CCC(O)(/C=C/CC(F)(F)F)CC1
> 10 µM | – | – | – | O=C(c1ccc(NS(=O)(=O)c2cccc3scnc23)cc1)N1CCC(O)(c2ncc(Cl)s2)CC1
> 10 µM | – | – | – | O=C(c1ccc(NS(=O)(=O)c2cccc3cccnc23)cn1)N1CCC(O)(c2ccccc2)CC1
– | < 100 nM | < 100 nM | < 100 nM | O=C(c1ccc(NS(=O)(=O)c2cccc3nccnc23)cc1)N1CCC(O)(CCC(F)=C(F)F)CC1
≥ 1.01 µM | ≥ 1010 nM | ≤ 1000 nM | – | CC1(O)CCC(C2(O)CCN(C(=O)c3ccc(NS(=O)(=O)c4cccc5scnc45)cc3)CC2)CC1 (stereo unspecified)
< 0.1 µM | – | < 100 nM | – | O=C(c1ccc(NS(=O)(=O)c2cccc3c(O)ncnc23)cc1)N1CCC(O)(/C=C/CC(F)(F)F)CC1
– | < 100 nM | < 100 nM | < 100 nM | CC(C)CC1(O)CCN(C(=O)c2ccc(NS(=O)(=O)c3cccc4c3OCO4)cc2)CC1
> 10 µM | – | – | – | COc1cccnc1C1(O)CCN(C(=O)c2ccc(NS(=O)(=O)c3cccc4cccnc34)cc2)CC1
> 10 µM | > 10000 nM | > 10000 nM | – | CC(C)CC1(O)CCN(C(=O)c2ccc(NS(=O)(=O)Cc3ccccn3)cc2)CC1
< 0.1 µM | < 100 nM | < 100 nM | – | O=C(c1ccc(NS(=O)(=O)c2cccc3cccnc23)cc1)N1CCC(O)(c2ccccc2OC(F)(F)F)CC1
< 0.1 µM | < 100 nM | < 100 nM | – | CC(CC1(O)CCN(C(=O)c2ccc(NS(=O)(=O)c3cccc4c(O)ncnc34)cc2)CC1)C(F)(F)F (stereo unspecified)
≤ 1 µM | ≤ 1000 nM | ≤ 1000 nM | – | O=C(c1ccc(NS(=O)(=O)c2ccccc2Cl)cc1)N1CCC(O)(Cc2ccccc2)CC1
> 10 µM | – | – | – | CC(C)CC1(OP(=O)(O)O)CCN(C(=O)c2ccc(NS(=O)(=O)c3cccc4nccnc34)cc2)CC1
> 10 µM | – | – | – | CCn1cc(CC2(O)CCN(C(=O)c3ccc(NS(=O)(=O)c4cccc5scnc45)cc3)CC2)cn1
> 10 µM | – | – | – | O=C(c1ccc(NS(=O)(=O)c2cccc3cccnc23)nc1)N1CCC(O)(c2ccccc2)CC1
> 10 µM | – | – | – | O=C(c1ccc(NS(=O)(=O)c2cccc3c2OC(F)(F)O3)cc1)N1CCC(O)(c2ccccc2Cl)CC1
> 10 µM | ≥ 1010 nM | ≥ 1010 nM | – | O=C(c1ccc(NS(=O)(=O)c2cccc3[nH]cnc23)cc1)N1CCC(O)(c2ccccc2Cl)CC1
> 10 µM | > 10000 nM | > 10000 nM | – | O=C(c1ccc(NS(=O)(=O)c2cccc3cccnc23)cc1)N1CCC(C(=O)O)(c2ccccc2)CC1
< 0.1 µM | < 100 nM | < 100 nM | – | O=C(c1ccc(NS(=O)(=O)c2ccc(F)c3cccnc23)cc1)N1CCC(O)(Cc2ccccc2F)CC1
– | < 100 nM | < 100 nM | < 100 nM | Cc1noc(C)c1CC1(O)CCN(C(=O)c2ccc(NS(=O)(=O)c3cccc4nccnc34)cc2)CC1

AC50 (Pyruvate kinase PKLR [1]) | AC50 (Pyruvate kinase PKLR [2]) | AC50 (Pyruvate kinase PKLR [3]) | AC50 (Pyruvate kinase PKLR [4]) | Structure (SMILES)
> 10 µM | – | – | – | O=C(c1ccc(NS(=O)(=O)c2cccc(OC(F)(F)F)c2)cc1)N1CCC(O)(Cc2ccccc2)CC1
> 10 µM | > 10000 nM | – | – | CC(C)CC1(O)CCN(C(=O)c2ccc(NS(=O)(=O)c3ccnc4scnc34)cc2)CC1
> 10 µM | – | – | – | CCn1cc(CC2(O)CCN(C(=O)c3ccc(NS(=O)(=O)c4cccc5nccnc45)cc3)CC2)cn1
> 10 µM | – | – | – | Cn1ccc(CC2(O)CCN(C(=O)c3ccc(NS(=O)(=O)c4cccc5nccnc45)cc3)CC2)n1
> 10 µM | – | – | – | O=C(c1ccc(NS(=O)(=O)c2c(F)ccc3ncsc23)cc1)N1CCC(O)(c2ccccc2Cl)CC1
> 10 µM | – | – | – | O=C(c1ccc(NS(=O)(=O)c2cccc3snnc23)cc1)N1CCC(O)(c2ccccc2Cl)CC1
> 10 µM | – | – | – | COc1nc(C(=O)N2CCC(O)(c3ccccc3)CC2)ccc1NS(=O)(=O)c1cccc2cccnc12
≤ 1 µM | ≤ 1000 nM | ≤ 1000 nM | – | CC1(O)CCC(C2(O)CCN(C(=O)c3ccc(NS(=O)(=O)c4cccc5nccnc45)cc3)CC2)CC1 (stereo unspecified)
≥ 1.01 µM | ≤ 1000 nM | ≤ 1000 nM | – | O=C(c1ccc(NS(=O)(=O)c2cccc3nccnc23)cc1)N1CCC(O)(c2ncc(Cl)s2)CC1
< 0.1 µM | < 100 nM | < 100 nM | – | CC(F)(F)CCC1(O)CCN(C(=O)c2ccc(NS(=O)(=O)c3cc(F)cc4sc(N)nc34)cc2)CC1
> 10 µM | > 10000 nM | – | – | O=C(c1ccc(NS(=O)(=O)c2cccc3ccnnc23)cc1)N1CCC(O)(c2ccccc2Cl)CC1
> 10 µM | – | – | – | CC1(O)CCN(C(=O)c2ccc(NS(=O)(=O)c3cccc4cccnc34)cc2)CC1
> 10 µM | – | – | – | CC(C)CC1(O)CCN(C(=O)c2ccc(NS(=O)(=O)c3c(F)ccc4ncsc34)cc2)CC1
< 0.1 µM | < 100 nM | < 100 nM | – | CNc1nc2c(S(=O)(=O)Nc3ccc(C(=O)N4CCC(O)(c5ccccc5Cl)CC4)cc3)cccc2s1
> 10 µM | > 10000 nM | > 10000 nM | – | O=C(c1ccc(NS(=O)(=O)Cc2ccccn2)cc1)N1CCC(O)(c2ccccc2Cl)CC1
> 10 µM | ≥ 1010 nM | ≥ 1010 nM | – | CCS(=O)(=O)CC1(O)CCN(C(=O)c2ccc(NS(=O)(=O)c3cccc4nccnc34)cc2)CC1
> 10 µM | – | – | – | O=C(c1ccc(NS(=O)(=O)c2cccc3cccnc23)c(F)c1F)N1CCC(O)(c2ccccc2)CC1
> 10 µM | ≥ 1010 nM | ≥ 1010 nM | – | O=C(c1ccc(NS(=O)(=O)c2cccc3c2OCC3)cc1)N1CCC(O)(c2ccccc2Cl)CC1
> 10 µM | > 10000 nM | – | – | CS(=O)(=O)CCC1(O)CCN(C(=O)c2ccc(NS(=O)(=O)c3cccc4scnc34)cc2)CC1
> 10 µM | – | – | – | CS(=O)(=O)CCC1(O)CCN(C(=O)c2ccc(NS(=O)(=O)c3cccc4nccnc34)cc2)CC1
> 10 µM | > 10000 nM | > 10000 nM | – | O=C(c1ccc(NS(=O)(=O)c2c[nH]c3cccnc23)cc1)N1CCC(O)(c2ccccc2Cl)CC1
> 10 µM | – | – | – | O=C1NCCC1CC1(O)CCN(C(=O)c2ccc(NS(=O)(=O)c3cccc4nccnc34)cc2)CC1 (stereo unspecified)
≥ 1.01 µM | ≥ 1010 nM | ≥ 1010 nM | – | CC(C)CC1(O)CCN(C(=O)c2ccc(NS(=O)(=O)c3cccc4c3OCC4)cc2)CC1

AC50 (Pyruvate kinase PKLR [1]) | AC50 (Pyruvate kinase PKLR [2]) | AC50 (Pyruvate kinase PKLR [3]) | AC50 (Pyruvate kinase PKLR [4]) | Structure (SMILES)
> 10 µM | – | – | – | CN1CCC(CC2(O)CCN(C(=O)c3ccc(NS(=O)(=O)c4cccc5scnc45)cc3)CC2)C1=O (stereo unspecified)
– | < 100 nM | < 100 nM | < 100 nM | O=C(c1ccc(NS(=O)(=O)c2cccc3nccnc23)cc1)N1CCC(O)(CCCC(F)F)CC1
< 0.1 µM | < 100 nM | < 100 nM | – | CC1(CC2(O)CCN(C(=O)c3ccc(NS(=O)(=O)c4cccc5scnc45)cc3)CC2)CC1
> 10 µM | – | – | – | O=C(c1ccc(NS(=O)(=O)c2cccc3scnc23)cc1)N1CCC(O)(c2cn[nH]c2)CC1
< 0.1 µM | < 100 nM | < 100 nM | – | COc1cc(NS(=O)(=O)c2cccc3cccnc23)ccc1C(=O)N1CCC(O)(Cc2ccccc2)CC1
> 10 µM | > 10000 nM | > 10000 nM | – | CC(C)CC1(O)CCN(C(=O)c2ccc(NS(=O)(=O)c3cccc4ncc(O)nc34)cc2)CC1
> 10 µM | – | – | – | O=C(c1ccc(NS(=O)(=O)c2cccc3nsnc23)cc1)N1CCC(O)(c2ccccc2)CC1
– | < 100 nM | < 100 nM | < 100 nM | O=C(c1ccc(NS(=O)(=O)c2cccc3scnc23)cc1)N1CCC(O)(CCCC(F)(F)F)CC1
> 10 µM | – | – | – | CCS(=O)(=O)CC1(O)CCN(C(=O)c2ccc(NS(=O)(=O)c3cccc4scnc34)cc2)CC1
– | < 100 nM | < 100 nM | < 100 nM | O=C(c1ccc(NS(=O)(=O)c2cccc3scnc23)cc1)N1CCC(O)(c2sncc2Cl)CC1
> 10 µM | – | – | – | O=C(c1ccc(NS(=O)(=O)c2cccc3ncccc23)cc1)N1CCC(O)(c2ccccc2)CC1
> 10 µM | – | – | – | O=C(c1ccc(N[S+]([O-])c2cccc3cccnc23)cc1)N1CCC(O)(c2ccccc2Cl)CC1 (stereo unspecified)
> 10 µM | > 10000 nM | > 10000 nM | – | CC(C)CC1(O)CCN(C(=O)c2ccc(NS(=O)(=O)c3cccc4[nH]cnc34)cc2)CC1
– | < 100 nM | < 100 nM | < 100 nM | Cn1nccc1CC1(O)CCN(C(=O)c2ccc(NS(=O)(=O)c3cccc4nccnc34)cc2)CC1
> 10 µM | > 10000 nM | > 10000 nM | – | Cn1ccc(C2(O)CCN(C(=O)c3ccc(NS(=O)(=O)c4cccc5scnc45)cc3)CC2)n1
– | < 100 nM | < 100 nM | < 100 nM | CC(C)CC1(O)CCN(C(=O)c2ccc(NS(=O)(=O)c3cncc4cccnc34)cc2)CC1
> 10 µM | – | – | – | Nc1nc(CC2(O)CCN(C(=O)c3ccc(NS(=O)(=O)c4cccc5scnc45)cc3)CC2)cs1
> 10 µM | > 10000 nM | > 10000 nM | – | O=C(c1ccc(NS(=O)(=O)n2ccc3cccnc32)cc1)N1CCC(O)(c2ccccc2Cl)CC1
– | < 100 nM | < 100 nM | < 100 nM | O=C(c1ccc(NS(=O)(=O)c2cccc3c(O)ncnc23)cc1)N1CCC(O)(c2cccc(F)c2F)CC1
> 10 µM | – | – | – | CC(C)CC1(O)CCN(C(=O)c2ccc(NS(=O)(=O)c3cccn4ccnc34)cc2)CC1
– | < 100 nM | < 100 nM | < 100 nM | CC(F)(F)CCC1(O)CCN(C(=O)c2ccc(NS(=O)(=O)c3cccc4nc(N)cnc34)cc2)CC1
